Reference: patent publication US9006445B2, “Polymorphic form of pridopidine hydrochloride” (Ivax International GmbH, priority 2011, dated 2015)
Like-named read-outs stand apart in the source and are kept apart here.

Experiments:
[1] = triplicate; for bulk density: 50.0 g sample; for tapped density: 2500 taps at 100 taps/min
Experimental: Density determinations were performed as described in Ph. Eur. 2.9.34. The method was modified as the sample amount placed in the 250 ml volumetric glass cylinder was 50.0 g and 2500 taps were run at 100 taps/min. The measurements were done in triplicate.

[2] = mixtures of the two forms slurried in organic solvent for 4 hours, XRPD
Experimental: (§1) In order to confirm this finding experimentally, a seeding experiment was carried out, where mixtures of the two forms were slurried in an organic solvent for 4 hours at various temperatures.

[3] = conclusion from calculated Tt and seeding experiment
Experimental: as §1

[4] = 25° C.
Experimental: Dynamic vapour sorption (DVS) measurements were conducted using a Q5000 SA from TA instruments.
Experiments were conducted in two sorption/desorption cycles between 0% RH and 95% RH. Prior to the first sorption cycle the sample was equilibrated at 20% RH and the initial weight recorded. Samples were analyzed in an aluminium pan. Humidity was brought down to 0% RH and the sample dried until the weight had stabilized within a given limit. The temperature was held constant at 25° C. Maximum step time was 720 min. Gas flow was 200 cm3/min.

[5] = for Particle size D10 / Particle size D50 / Particle size D90: image analysis; for Aspect ratio AR10 / Aspect ratio AR50 / Aspect ratio AR90: longest divided by shortest particle dimension
Experimental: Microscopic analysis was carried out using a Zeiss Axiolab microscope (Carl Zeiss, Göttingen, Germany). Photomicrographs were captured using a DeltaPix digital camera and Deltapix software version 1.6 (Maaloev, Denmark). […] The particle size was determinated using Motic Image Plus 2.0 software (Motic Group Inc, China), calibrated to pictures of reference scales taken with the used objectives.

## CCCN1CCC(c2cccc(S(C)(=O)=O)c2)CC1.Cl [Form II, 4-(3-methanesulfonyl-phenyl)-1-propyl-piperidine hydrochloride salt]
[1]
  bulk density: 0.382 g/mL
  tapped density: 0.486 g/mL
[2]
  temperature at which the polymorphic outcome of slurrying was this form: above 130 °C
[3]
  temperature at which the form is the thermodynamically most stable form: above 127 °C
[4]; below 80% RH
  hygroscopicity (DVS): non-hygroscopic
[4]; in excess of 80% RH
  hygroscopicity (DVS): deliquescent
[5]
  Particle size D10: 49 μm
  Particle size D50: 170 μm
  Particle size D90: 363 μm
  Aspect ratio AR10: 1.1
  Aspect ratio AR50: 1.6
  Aspect ratio AR90: 2.9

## CCCN1CCC(c2cccc(S(C)(=O)=O)c2)CC1 [Form I, 4-(3-methanesulfonyl-phenyl)-1-propyl-piperidine]
[1]
  bulk density: 0.212 g/mL
  tapped density: 0.264 g/mL
[2]
  temperature at which the polymorphic outcome of slurrying was this form: below 125 °C
[3]
  temperature at which the form is the thermodynamically most stable form: above 127 °C
[4]; below 80% RH
  hygroscopicity (DVS): non-hygroscopic
[4]; in excess of 80% RH
  hygroscopicity (DVS): deliquescent
[5]
  Particle size D10: 9 μm
  Particle size D50: 21 μm
  Particle size D90: 42 μm
  Aspect ratio AR10: 1.6
  Aspect ratio AR50: 3.1
  Aspect ratio AR90: 5.8
